Experiments:
[1] = test system: MHC-I; experiment: MHC-I expression in TC1/A9 murine lung tumor cells; assay type: cell-based; conditions: FIG. 11A
Protocol: (§1) Curcuphenol and four curcuphenol analogs (see FIG. 10) were synthesized and tested for the ability to increase MHC-I expression in TC1/A9 murine lung tumor cells. Toxicity was also measured by propidium iodide (PI) exclusion.

[2] = test system: TC1/A9 murine lung tumor cells; experiment: Cell toxicity in A9 cells by PI exclusion and intact cell number; assay type: cell-based; conditions: FIG. 11B
Protocol: as §1

SMILES | MHC-I expression relative to controls [1] | toxicity by propidium iodide (PI) exclusion and intact cell number [2]
CC(C)=CCC[C@H](C)c1ccc(C)cc1O (stereo in doubt) [curcuphenol, phenol,2-(1,5-dimethyl-4-hexenyl)-5-methyl-, (S)—] | significantly increasing MHC-I expression | acceptable levels of toxicity
CC(C)=CCCCc1ccc(C)cc1O [PC-02/113] | significantly increasing MHC-I expression | acceptable levels of toxicity
